Laboratory results reported in patent US20060216238A1, “Compositions and methods for targeting or imaging a tissue in a vertebrate subject” (priority 2005, published 2006).

Legend:
[1] = target: folate receptor (FR) on KB and HeLa cells (Homo sapiens, UniProt P15328); settings: 4° C., both cell lines
[2] = RT-PCR detection of CPMV RNA in tissues of mice inoculated orally (gavage); settings: for CPMV RNA detected in bone marrow, mice positive/examined / CPMV RNA detected in brain, mice positive/examined / CPMV RNA detected in duodenum, mice positive/examined / CPMV RNA detected in ileum, mice positive/examined / CPMV RNA detected in jejunum, mice positive/examined / CPMV RNA detected in kidney, mice positive/examined / CPMV RNA detected in liver, mice positive/examined / CPMV RNA detected in lung, mice positive/examined / CPMV RNA detected in spleen, mice positive/examined / CPMV RNA detected in stomach, mice positive/examined: oral
LCMV = settings: mouse, in vivo
KDR receptor (VEGFR2) = KDR receptor (VEGFR2) (Homo sapiens, UniProt P35968); assay: Binding assay using ELISA
cowpea plants [3] = assay: Recovery of virus particles from mouse tissues, infectivity to cowpea; parameters: species or system Vigna unguiculata
Method: Recovery of virus particles from mouse tissues. Four mice were orally inoculated with 150 μg/mouse of CPMV and 24 hours later, the mice were euthanized and the liver, spleen, and kidney tissues were extracted and pooled. Following homogenization of pooled tissue samples in PBS, the homogenates were centrifuged at 10,000 g for 10 minutes at 4° C., and the cleared tissue supernatants were removed to flat-bottom 50-ml centrifuge tubes, each containing a magnetic flea. Polyethylene glycol 8000 was added to each supernatant to a final concentration of 8% and the mixture was stirred for 30 minutes at 4° C. to precipitate any virus present. The resulting cloudy mixture was centrifuged at 6,000 rpm in a Sorvall RC5C centrifuge for 15 minutes and the pellet was resuspended in 50-500 μl of 0.1 M phosphate buffer (pH 7.0), depending on pellet size. For each tissue homogenate a 7-day-old cowpea plant was dusted with carborundum and the resuspended pellet from each tissue was rubbed onto a single primary leaf. Five to seven days later, the primary and secondary leaves were harvested and a circle of tissue weighing 70 mg was excised from each leaf. RNA was extracted using a Qiagen RNeasy Plant Mini Kit (Qiagen Research, Maryland, USA) and RT-PCR was conducted as described above. PCR products were electrophoresed on a 2% Seakem LE agarose gel. The PCR products were purified from the gel using a PCR purification kit (Qiagen) and sequenced (Retrogen) to confirm that they were CPMV specific. Southern hybridization of the products with a CPMV-specific probe was also performed using ^32P end-labeled oligonucleotides (Amersham Biosciences). PCR products were transfered to Hybond-N+ membrane (Amersham Biosciences) using standard techniques. Hybridization conditions were 3 hours at 55° C. and wash conditions were in 6×SSC/0.5% SDS and were performed twice for five minutes at room temperature and twice for 5 minutes at 50° C.

[4] = system: HUVECS stimulated with vegf; assay: Endothelial cell proliferation assay using CFDA; assay type: cell-based, human; settings: 30 ug/ml; listed as wt CPMV
Method: Measure in vitro angiogenesis by endothelial cell proliferation assay. HUVECs were plated in 96 well plates at 10^4 cells/well in 200 ul EGM2 complete medium. Cells were incubated for 24 h at 37° C. in 5% CO2. cells were then washed once in PBS and incubated in serum free, glucose free medium for 24 h to suppress cell growth. Further, the cells were exposed to various treatments like 10% FBS or VEGF165 in the presence or absence of the targeting CPMV chimeras. Wild type CPMV was used as a control. After 48 h incubation, 1 μl of CFDA was added to the wells and the plated were incubated for additional 24 h. The cells were then placed on ice, washed in PBS 3× and finally fixed in cold 10% TCA for 10 minutes. After washing, the cells were lysed and the CFDA incorporation was read at 488 nm.

cowpea plants [5] = assay: Infectivity of CPMV following incubation with blood plasma or serum; parameters: species or system Vigna unguiculata; settings: day 7
Method: Infectivity of CPMV following incubation with blood. Whole blood samples were obtained from mice following cardiac puncture either with or without heparin. Samples were incubated at 4° C. overnight and then spun at 15,000 rpm for 10 minutes. Blood plasma or serum were recovered and incubated with CPMV (15 ug) in a one to one (v/v) ratio at 37° C. for 30 minutes while a control CPMV sample was incubated with PBS. Primary leaves from 7-day-old cowpea plants were then bruised with carborundum and inoculated with samples (at a concentration of 3 μg CPMV per leaf, or 300-fold more virus than is required to produce lesions) and observed daily for infection-induced mosaic symptoms.

[6] = 1 g infected leaves, day 1 post ingestion

Chain of folate receptor (FR) on KB and HeLa cells (P15328 25-234): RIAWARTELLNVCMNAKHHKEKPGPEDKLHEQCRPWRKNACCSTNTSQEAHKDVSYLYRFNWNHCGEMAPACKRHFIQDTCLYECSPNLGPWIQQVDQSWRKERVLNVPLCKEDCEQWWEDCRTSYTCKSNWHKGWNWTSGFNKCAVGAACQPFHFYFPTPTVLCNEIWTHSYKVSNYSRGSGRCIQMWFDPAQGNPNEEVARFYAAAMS
Chain of KDR receptor (VEGFR2) (P35968 20-1356): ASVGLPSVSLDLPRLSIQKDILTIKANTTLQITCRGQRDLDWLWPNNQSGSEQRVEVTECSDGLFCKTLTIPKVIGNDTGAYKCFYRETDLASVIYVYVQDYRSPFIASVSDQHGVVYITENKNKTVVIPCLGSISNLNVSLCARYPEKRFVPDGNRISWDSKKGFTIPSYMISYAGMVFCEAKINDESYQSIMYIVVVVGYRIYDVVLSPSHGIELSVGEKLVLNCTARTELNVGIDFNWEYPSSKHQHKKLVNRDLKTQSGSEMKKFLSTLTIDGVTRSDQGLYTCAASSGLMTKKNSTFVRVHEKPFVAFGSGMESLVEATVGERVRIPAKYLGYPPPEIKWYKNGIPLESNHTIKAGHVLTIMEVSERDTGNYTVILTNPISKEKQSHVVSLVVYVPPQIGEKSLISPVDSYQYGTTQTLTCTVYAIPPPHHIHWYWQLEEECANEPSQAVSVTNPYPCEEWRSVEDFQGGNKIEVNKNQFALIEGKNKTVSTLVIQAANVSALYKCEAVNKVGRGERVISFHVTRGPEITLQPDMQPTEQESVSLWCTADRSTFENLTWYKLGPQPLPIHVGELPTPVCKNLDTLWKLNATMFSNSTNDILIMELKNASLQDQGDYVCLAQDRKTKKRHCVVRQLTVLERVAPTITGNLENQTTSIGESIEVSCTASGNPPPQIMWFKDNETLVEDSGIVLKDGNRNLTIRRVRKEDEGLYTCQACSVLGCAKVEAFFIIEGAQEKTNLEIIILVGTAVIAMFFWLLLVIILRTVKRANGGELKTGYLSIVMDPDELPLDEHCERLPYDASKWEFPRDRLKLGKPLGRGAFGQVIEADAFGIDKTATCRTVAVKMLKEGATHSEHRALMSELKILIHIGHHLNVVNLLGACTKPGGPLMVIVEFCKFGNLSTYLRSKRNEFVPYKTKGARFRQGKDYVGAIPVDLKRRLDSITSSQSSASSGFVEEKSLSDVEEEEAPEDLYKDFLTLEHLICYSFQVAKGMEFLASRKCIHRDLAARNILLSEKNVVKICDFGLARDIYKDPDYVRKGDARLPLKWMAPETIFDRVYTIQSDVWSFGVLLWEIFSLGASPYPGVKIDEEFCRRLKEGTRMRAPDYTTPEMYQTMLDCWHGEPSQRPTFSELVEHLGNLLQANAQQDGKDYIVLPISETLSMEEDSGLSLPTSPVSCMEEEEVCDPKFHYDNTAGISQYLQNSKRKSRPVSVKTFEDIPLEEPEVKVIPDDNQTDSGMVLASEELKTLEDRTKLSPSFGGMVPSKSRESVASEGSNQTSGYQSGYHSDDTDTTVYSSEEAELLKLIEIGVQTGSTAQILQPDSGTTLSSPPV

Substance: cowpea mosaic virus [CPMV]
- non-specific binding to the cell surface [1]: significant non-specifig binding
- CPMV RNA in the blood ([2]; oral gavage, 4 hours, 1 day, 2 days, 3 days): detected in the blood of all orally gavaged mice
- CPMV RNA detected in bone marrow, mice positive/examined ([2]; D1, Non-perfused): 3/3
- CPMV RNA detected in brain, mice positive/examined ([2]; D1, Non-perfused): 3/3
- CPMV RNA detected in duodenum, mice positive/examined ([2]; D1, Non-perfused): 3/3
- CPMV RNA detected in ileum, mice positive/examined ([2]; D1, Non-perfused): 3/3
- CPMV RNA detected in jejunum, mice positive/examined ([2]; D1, Non-perfused): 3/3
- CPMV RNA detected in kidney, mice positive/examined ([2]; D1, Non-perfused): 3/3
- CPMV RNA detected in liver, mice positive/examined ([2]; D1, Non-perfused): 3/3
- CPMV RNA detected in lung, mice positive/examined ([2]; D1, Non-perfused): 3/3
- CPMV RNA detected in spleen, mice positive/examined ([2]; D1, Non-perfused): 3/3
- CPMV RNA detected in stomach, mice positive/examined ([2]; D1, Non-perfused): 3/3
- CPMV RNA detected in bone marrow, mice positive/examined ([2]; D1, Perfused): 2/3
- CPMV RNA detected in brain, mice positive/examined ([2]; D1, Perfused): 3/3
- CPMV RNA detected in duodenum, mice positive/examined ([2]; D1, Perfused): 3/3
- CPMV RNA detected in ileum, mice positive/examined ([2]; D1, Perfused): 3/3
- CPMV RNA detected in jejunum, mice positive/examined ([2]; D1, Perfused): 3/3
- CPMV RNA detected in kidney, mice positive/examined ([2]; D1, Perfused): 3/3
- CPMV RNA detected in liver, mice positive/examined ([2]; D1, Perfused): 3/3
- CPMV RNA detected in lung, mice positive/examined ([2]; D1, Perfused): 3/3
- CPMV RNA detected in spleen, mice positive/examined ([2]; D1, Perfused): 3/3
- CPMV RNA detected in stomach, mice positive/examined ([2]; D1, Perfused): 2/3
- CPMV RNA detected in bone marrow, mice positive/examined ([2]; D2, Non-perfused): 0/3
- CPMV RNA detected in brain, mice positive/examined ([2]; D2, Non-perfused): 1/3
- CPMV RNA detected in duodenum, mice positive/examined ([2]; D2, Non-perfused): 1/3
- CPMV RNA detected in ileum, mice positive/examined ([2]; D2, Non-perfused): 3/3
- CPMV RNA detected in jejunum, mice positive/examined ([2]; D2, Non-perfused): 0/3
- CPMV RNA detected in kidney, mice positive/examined ([2]; D2, Non-perfused): 0/3
- CPMV RNA detected in liver, mice positive/examined ([2]; D2, Non-perfused): 3/3
- CPMV RNA detected in lung, mice positive/examined ([2]; D2, Non-perfused): 1/3
- CPMV RNA detected in spleen, mice positive/examined ([2]; D2, Non-perfused): 1/3
- CPMV RNA detected in stomach, mice positive/examined ([2]; D2, Non-perfused): 1/3
- CPMV RNA detected in bone marrow, mice positive/examined ([2]; D2, Perfused): 0/3
- CPMV RNA detected in brain, mice positive/examined ([2]; D2, Perfused): 1/3
- CPMV RNA detected in duodenum, mice positive/examined ([2]; D2, Perfused): 1/3
- CPMV RNA detected in ileum, mice positive/examined ([2]; D2, Perfused): 1/3
- CPMV RNA detected in jejunum, mice positive/examined ([2]; D2, Perfused): 1/3
- CPMV RNA detected in kidney, mice positive/examined ([2]; D2, Perfused): 3/3
- CPMV RNA detected in liver, mice positive/examined ([2]; D2, Perfused): 3/3
- CPMV RNA detected in lung, mice positive/examined ([2]; D2, Perfused): 2/3
- CPMV RNA detected in spleen, mice positive/examined ([2]; D2, Perfused): 0/3
- CPMV RNA detected in stomach, mice positive/examined ([2]; D2, Perfused): 1/3
- CPMV RNA detected in bone marrow, mice positive/examined ([2]; D3, Non-perfused): 1/3
- CPMV RNA detected in brain, mice positive/examined ([2]; D3, Non-perfused): 3/3
- CPMV RNA detected in duodenum, mice positive/examined ([2]; D3, Non-perfused): 2/3
- CPMV RNA detected in ileum, mice positive/examined ([2]; D3, Non-perfused): 2/3
- CPMV RNA detected in jejunum, mice positive/examined ([2]; D3, Non-perfused): 2/3
- CPMV RNA detected in kidney, mice positive/examined ([2]; D3, Non-perfused): 1/3
- CPMV RNA detected in liver, mice positive/examined ([2]; D3, Non-perfused): 2/2
- CPMV RNA detected in lung, mice positive/examined ([2]; D3, Non-perfused): 1/3
- CPMV RNA detected in spleen, mice positive/examined ([2]; D3, Non-perfused): 0/3
- CPMV RNA detected in stomach, mice positive/examined ([2]; D3, Non-perfused): 3/3
- CPMV RNA detected in bone marrow, mice positive/examined ([2]; D3, Perfused): 0/3
- CPMV RNA detected in brain, mice positive/examined ([2]; D3, Perfused): 2/3
- CPMV RNA detected in duodenum, mice positive/examined ([2]; D3, Perfused): 0/2
- CPMV RNA detected in ileum, mice positive/examined ([2]; D3, Perfused): 1/3
- CPMV RNA detected in jejunum, mice positive/examined ([2]; D3, Perfused): 0/2
- CPMV RNA detected in kidney, mice positive/examined ([2]; D3, Perfused): 2/3
- CPMV RNA detected in liver, mice positive/examined ([2]; D3, Perfused): 3/3
- CPMV RNA detected in lung, mice positive/examined ([2]; D3, Perfused): 1/3
- CPMV RNA detected in spleen, mice positive/examined ([2]; D3, Perfused): 0/3
- CPMV RNA detected in stomach, mice positive/examined ([2]; D3, Perfused): 0/3
- survival of lethal i.c. LCMV challenge (LCMV): one of six
- binding to KDR receptor in ELISA (KDR receptor (VEGFR2)): did not show any detectable binding
- mice positive for CPMV RNA in kidney, duodenum, jejunum and brain [6]: 1 out of 3
- mice positive for CPMV RNA in spleen, liver, lungs, stomach, ileum and bone marrow [6]: 2 out of 3
- persistence of CPMV RNA in tissues (ingestion of infected leaves): did not persist in tissues past the first day
- symptoms on cowpea leaves from virus recovered from mouse liver and spleen (cowpea plants [3]; PEG-precipitated tissue homogenates): No symptoms were observed
- inoculated amount required for a PCR signal (cowpea plants [3]; control titration on cowpea): 1 ng
- inoculated amount required to observe symptoms (cowpea plants [3]; control titration on cowpea): 10 ng
- effect on cell growth/proliferation [4]: did not affect cell growth/proliferation
- lesions on primary leaves, plasma-incubated virus (cowpea plants [5]; 30 minutes at 37° C.): 6 lesions per cm
- lesions on primary leaves, serum-incubated virus (cowpea plants [5]; 30 minutes at 37° C.): less than 1 lesion per cm^2
- lesions on primary leaves, control infection (PBS) (cowpea plants [5]): too many lesions to count
